Laboratory results reported in US8623855B2, “Azetidinone compounds and medical use thereof” (Zhejiang Hisun Pharmaceutical Co., Ltd., priority 2009, dated 2014).
Where two headings read alike, the source gives them in different places.

Test system: hypercholesterolemia golden hamster model
Experiment: In vivo pharmacodynamic screening in hypercholesterolemia model of golden hamster (plasma TC and LDL-C)
Conditions: for inhibition in vivo at 1 mg/kg / inhibition in vivo at 10 mg/kg / inhibition in vivo at 3 mg/kg / inhibition in vivo at 5 mg/kg: Mesocricetus auratus, po, 168 h; for LDL after administration / TC after administration / LDL-C after administration: 1 week, plasma; for reduction of plasma TC and LDL-C levels (in words): golden hamster hypercholesterolemic model, significant statistical difference; for effect of lowering cholesterol (screening result in words): in vivo pharmacodynamic screening test, Ezetimibe as positive control; for efficacy compared with the positive control (in words): positive control Ezetimibe; for LDL-C before administration / TC before administration: baseline of group dosed 10 mg/kg
Method: 1. Establishment of Hypercholesterolemia Model of Golden Hamster:
The animals were subjected to acclimation feeding for 1 week with free feeding and drinking under a lighting condition of 10 h/14 h. On Day 8, the animals were raised with high fat feed (consisting of 0.5% cholesterol, 20% palm oil, 79.5% basal feed) for 1 week. Then, each animal was anesthetized by ether. After weighing, 0.5 ml blood was obtained from orbital vein, anticoagulated with heparin and centrifuged at 5000 rpm for 10 min. The plasma was collected and the levels of plasma TC (total cholesterol) and LDL-C (low density lipoprotein cholesterol) were determined by automatic biochemical analyzer. Animals with plasma TC of 9-15 mmol/L were selected as model animals (refer to the following reference for the method of animal modeling: Burrier, R. E., Smith, A. A., Mcgregor, D. G, Hoos, L. M., Zilli, D. L., Davis, H. R. The effect of acyl CoA: cholesterol acyltransferase inhibition on the uptake, esterification and secretion of cholesterol by the hamster small intestine. J. Pharm. Exp. Ther., 1995, 272, 156-163).
The animals were grouped according to TC and LDL-C levels and weight with 6 animals per group. Ezetimibe was used as positive control. The animals were intragastrically administered at a volume of 5 ml/kg for 1 week. Each animal was anesthetized by ether. After weighing, 0.5 ml blood was taken from orbital vein, anticoagulated with heparin, and centrifuged at 5000 rpm for 10 min. The plasma was collected and plasma TC (total cholesterol) and LDL-C (low density lipoprotein cholesterol) levels were determined by automatic biochemical analyzer to evaluate the efficacy of the compounds.

[1] = Table 10, read-out: Reducing LDL-C %
[2] = Table 10, read-out: Reducing TC %
[3] = Table 12, read-out: Reducing LDL-C %
[4] = Table 12, read-out: Reducing TC %
[5] = Table 11, 10 mg/kg intragastric
[6] = Table 8, read-out: Reducing LDL-C %
[7] = Table 8, read-out: Reducing TC %
[8] = Table 6, read-out: Reducing LDL-C %
[9] = Table 6, read-out: Reducing TC %

Structure (SMILES)	inhibition in vivo at 1 mg/kg [1] [%]	inhibition in vivo at 1 mg/kg [2] [%]	inhibition in vivo at 10 mg/kg [1] [%]	inhibition in vivo at 10 mg/kg [2] [%]	LDL after administration (Table 9, 1 mg/kg intragastric) [mmol/L]	TC after administration (Table 9, 1 mg/kg intragastric) [mmol/L]	LDL after administration (Table 9, 10 mg/kg intragastric) [mmol/L]	TC after administration (Table 9, 10 mg/kg intragastric) [mmol/L]	reduction of plasma TC and LDL-C levels (in words)	effect of lowering cholesterol (screening result in words)	efficacy compared with the positive control (in words)	other results
CC(=O)Oc1ccc([C@@H]2[C@@H](C/C=C(\CO)c3ccc(F)cc3)C(=O)N2c2ccc(F)cc2)cc1 [I-6(Z), (3R,4S)-4-(4-acetoxyphenyl)-1-(4-fluorophenyl)-3-[(Z)-3-(4-fluorophenyl)-4-hydroxy-but-2-enyl]azetidin-2-one]	50.2	51.5	70.4	65.6	1.57	7.45	0.93	5.28	can significantly reduce the plasma TC and LDL-C levels	have the effect of lowering cholesterol	more similar to the positive control	–
O=C1[C@H](C/C=C(\CO)c2ccc(F)cc2)[C@@H](c2ccc(Oc3ccccc3)cc2)N1c1ccc(F)cc1 [I-3(Z)]	–	–	–	–	–	–	–	–	can significantly reduce the plasma TC and LDL-C levels	have the effect of lowering cholesterol	more similar to the positive control	inhibition in vivo at 10 mg/kg [3]: 66.3%; inhibition in vivo at 10 mg/kg [4]: 50.8%; LDL-C after administration [5]: 1.14; TC after administration [5]: 6.23; LDL-C before administration (Table 11): 3.38 ± 0.84; TC before administration (Table 11): 12.67 ± 1.35
Cc1ccc(C(=O)OC/C(=C\C[C@H]2C(=O)N(c3ccc(F)cc3)[C@@H]2c2ccc(O)cc2)c2ccc(F)cc2)cc1 [I-15(Z)]	–	–	–	–	–	–	–	–	can significantly reduce the plasma TC and LDL-C levels	have the effect of lowering cholesterol	more similar to the positive control	inhibition in vivo at 1 mg/kg [6]: 46.5%; inhibition in vivo at 1 mg/kg [7]: 38.1%; inhibition in vivo at 3 mg/kg [6]: 70.4%; inhibition in vivo at 3 mg/kg [7]: 50.8%; LDL after administration (Table 7, 1 mg/kg intragastric): 1.99 mmol/L; TC after administration (Table 7, 1 mg/kg intragastric): 6.76 mmol/L; LDL after administration (Table 7, 3 mg/kg intragastric): 1.44 mmol/L; TC after administration (Table 7, 3 mg/kg intragastric): 5.37 mmol/L
CC(=O)OC/C(=C\C[C@H]1C(=O)N(c2ccc(F)cc2)[C@@H]1c1ccc(O)cc1)c1ccc(F)cc1 [I-12(Z), (3R,4S)-3-[(Z)-4-acetoxy-3-(4-fluorophenyl)-but-2-enyl]-1-(4-fluorophenyl)-4-(4-hydroxyphenyl)azetidin-2-one]	–	–	–	–	–	–	–	–	can significantly reduce the plasma TC and LDL-C levels	have the effect of lowering cholesterol	–	inhibition in vivo at 1 mg/kg [8]: 62.8%; inhibition in vivo at 1 mg/kg [9]: 50.9%; inhibition in vivo at 10 mg/kg [8]: 71.5%; inhibition in vivo at 10 mg/kg [9]: 54.8%; LDL after administration (Table 5, 1 mg/kg intragastric): 1.58 mmol/L; TC after administration (Table 5, 1 mg/kg intragastric): 5.29 mmol/L; LDL after administration (Table 5, 10 mg/kg intragastric): 1.34 mmol/L; TC after administration (Table 5, 10 mg/kg intragastric): 4.86 mmol/L
CC(=O)OC/C(=C\C[C@H]1C(=O)N(c2ccc(F)cc2)[C@@H]1c1ccc(OC(C)=O)cc1)c1ccc(F)cc1 [I-11(Z), (3R,4S)-3-[(Z)-4-acetoxy-3-(4-fluorophenyl)-but-2-enyl]-4-(4-acetoxyphenyl)-1-(4-fluorophenyl)azetidin-2-one]	47.7	48	59.2	60.2	1.65	7.98	1.28	6.11	can significantly reduce the plasma TC and LDL-C levels	have the effect of lowering cholesterol	–	–
CC(=O)OC/C(=C\C[C@H]1C(=O)N(c2ccc(F)cc2)[C@@H]1c1ccc(OC(=O)c2ccccc2)cc1)c1ccc(F)cc1 [I-16(Z), (3R,4S)-3-[(Z)-4-acetoxy-3-(4-fluorophenyl)-but-2-enyl]-4-(4-benzoyloxyphenyl)-1-(4-fluorophenyl)azetidin-2-one]	31.7	37.4	65	60.9	2.15	9.61	1.1	6.0	can significantly reduce the plasma TC and LDL-C levels	have the effect of lowering cholesterol	–	–
COc1ccc([C@@H]2[C@@H](C/C=C(\CO)c3ccc(F)cc3)C(=O)N2c2ccc(F)cc2)cc1 [I-2(Z)]	–	–	–	–	–	–	–	–	can significantly reduce the plasma TC and LDL-C levels	have the effect of lowering cholesterol	more similar to the positive control	inhibition in vivo at 5 mg/kg [3]: 63.4%; inhibition in vivo at 5 mg/kg [4]: 62.2%; LDL-C after administration [5]: 1.01; TC after administration [5]: 4.82; LDL-C before administration (Table 11): 2.76 ± 0.43; TC before administration (Table 11): 12.74 ± 1.32
O=C(Oc1ccc([C@@H]2[C@@H](C/C=C(\CO)c3ccc(F)cc3)C(=O)N2c2ccc(F)cc2)cc1)c1ccccc1 [I-5(Z), (3R,4S)-4-(4-benzoyloxyphenyl)-1-(4-fluorophenyl)-3-[(Z)-3-(4-fluorophenyl)-4-hydroxy-but-2-enyl]azetidin-2-one]	30.7	31.2	68.1	62.7	2.18	10.55	1.0	5.73	can significantly reduce the plasma TC and LDL-C levels	have the effect of lowering cholesterol	–	–
O=C(OC/C(=C\C[C@H]1C(=O)N(c2ccc(F)cc2)[C@@H]1c1ccc(O)cc1)c1ccc(F)cc1)c1ccccc1 [I-13(Z)]	–	–	–	–	–	–	–	–	can significantly reduce the plasma TC and LDL-C levels	have the effect of lowering cholesterol	–	inhibition in vivo at 1 mg/kg [8]: 58.1%; inhibition in vivo at 1 mg/kg [9]: 36.8%; inhibition in vivo at 10 mg/kg [8]: 68.8%; inhibition in vivo at 10 mg/kg [9]: 55.4%; LDL after administration (Table 5, 1 mg/kg intragastric): 1.98 mmol/L; TC after administration (Table 5, 1 mg/kg intragastric): 6.92 mmol/L; LDL after administration (Table 5, 10 mg/kg intragastric): 1.27 mmol/L; TC after administration (Table 5, 10 mg/kg intragastric): 4.81 mmol/L
